From ChEMBL document CHEMBL5727406, “Positive allosteric modulators of the GLP-1 receptor” (2019)

Biological target: Glucagon-like peptide 1 receptor (Homo sapiens, UniProt P43220)
Assay: GLP-1 Assay with EX-4 Synthetic Agonist: To assess the effects of test compounds on GLP-1 or glucagon potency and efficacy, a high-throughput calcium mobilization assay was used essentially as previously described (Morris L C, Days E L, Turney M, Mi D, Lindsley C W, Weaver C D, Niswender K D, A Duplexed High-Throughput Screen to Identify Allosteric Modulators of the Glucagon-Like Peptide 1 and Glucagon Receptors. J. Biomol. Screen. 2014 Feb. 13, 19(6):847-858). Briefly, human GLP-1R or Glucagon Receptor 9-3-H cells over-expressing a promiscuous G-protein (Millipore, Billerica, Mass.) were plated at 15,000 cells/well in black-walled 384-well plates (Greiner Bio-one, Monroe, N.C.) in Dulbecco's Modified Eagles Medium (DMEM) with 10% FCS, 4.0 mM L-glutamine, 1× non-essential amino acids (NEAAs), and 10.0 mM HEPES without antibiotics. After overnight attachment, cells were washed twice with assay buffer (HBSS supplemented with 20 mM HEPES and 1.0 mM probenecid) using an EL×405CW cell washer (Bio-Tek, Winooski, Vt.) and then loaded with the calcium sensitive dye fluo-4 AM (Invitrogen, Grand Island, N.Y.) at a final concentration of 2.0 μM in assay buffer. After a 45-minute incubation at room temperature, the dye was removed by washing, leaving 20 μL of assay buffer. […]

Glucagon-like peptide 1 receptor, sequence (P43220 whole entry): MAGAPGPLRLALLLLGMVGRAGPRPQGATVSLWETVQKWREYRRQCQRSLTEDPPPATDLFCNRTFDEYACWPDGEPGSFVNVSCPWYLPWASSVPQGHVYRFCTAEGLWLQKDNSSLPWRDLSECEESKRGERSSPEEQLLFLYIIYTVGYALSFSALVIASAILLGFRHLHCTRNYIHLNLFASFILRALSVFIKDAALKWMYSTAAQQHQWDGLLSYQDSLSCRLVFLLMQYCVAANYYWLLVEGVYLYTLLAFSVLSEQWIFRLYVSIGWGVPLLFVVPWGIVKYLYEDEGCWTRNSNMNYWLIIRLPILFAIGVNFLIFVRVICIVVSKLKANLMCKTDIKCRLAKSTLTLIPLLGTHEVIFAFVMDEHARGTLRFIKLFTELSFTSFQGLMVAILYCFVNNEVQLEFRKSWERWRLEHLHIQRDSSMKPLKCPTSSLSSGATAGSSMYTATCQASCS

EC50: > 30 µM
Structure (SMILES): Cc1c2ccccc2n2c(C(=O)NC[C@H]3CCCN3C(C)C)cn(C3CCCC3)c(=O)c12
